Reference: ChEMBL document CHEMBL1144386, “Synthesis of O-galactosyl aldoximes as potent LacNAc-mimetic galectin-3 inhibitors” (Bioorg Med Chem Lett, 2005)

test: Dissociation constant against galectin-3 using competitive fluorescence polarization

First: O=[N+]([O-])c1cccc(/C=N/O[C@@H]2OC(CO)C(O)[C@H](O)C2O)c1 (stereo partly specified)
Second: Cc1ccc(O)c(/C=N/O[C@@H]2OC(CO)C(O)[C@H](O)C2O)c1 (stereo partly specified)
The Kd of the first is 4.9-fold lower: 530 µM for the first, 2600 µM for the second. The first binds more tightly here.

First: OCC1O[C@@H](O/N=C/c2cccc(OC(F)(F)F)c2)C(O)[C@@H](O)C1O (stereo partly specified)
Second: OCC1O[C@@H](O/N=C/c2cccc3ccccc23)C(O)[C@@H](O)C1O (stereo partly specified)
The Kd of the first is 5.9-fold higher: 2200 µM for the first, 370 µM for the second. The second binds more tightly here.

Compared with `OCC1O[C@@H](O/N=C/c2ccc(-c3ccccc3)cc2)C(O)[C@@H](O)C1O` (stereo partly specified), `OCC1O[C@@H](O/N=C/c2ccccc2O)C(O)[C@@H](O)C1O` (stereo partly specified) is 3.3-fold lower in Kd: 6000 µM for the first, 1800 µM for the second. The second binds more tightly here.

Going from `OCC1O[C@@H](O/N=C/c2c[nH]c3ccccc23)C(O)[C@@H](O)C1O` (stereo partly specified) to `OCC1O[C@@H](O/N=C/c2ccc(F)cc2)C(O)[C@@H](O)C1O` (stereo partly specified), the Kd rises from 330 µM to 3100 µM (9.4-fold). The first binds more tightly here.

`COc1ccc(/C=N/O[C@@H]2OC(CO)C(O)[C@H](O)C2O)c(O)c1` (stereo partly specified) and `OCC1O[C@@H](O/N=C/c2cccc(O)c2)C(O)[C@@H](O)C1O` (stereo partly specified) are within 1.5-fold of each other in Kd: 1700 µM for the first, 1800 µM for the second.

First: OC[C@H]1O[C@@H](O/N=C/c2c[nH]c3ccccc23)[C@H](O)[C@@H](O)[C@H]1O
Second: C/C=N/O[C@@H]1OC(CO)C(O)[C@H](O)C1O (stereo partly specified)
The Kd of the first is 26-fold lower: 220 µM for the first, 5700 µM for the second. The first binds more tightly here.

Compared with `O=[N+]([O-])c1ccc(/C=N/O[C@@H]2OC(CO)C(O)[C@H](O)C2O)o1` (stereo partly specified), `OCC1O[C@@H](O/N=C/c2ccccc2F)C(O)[C@@H](O)C1O` (stereo partly specified) is higher in Kd: 1600 µM for the first, over 10000 µM for the second.

Compared with `OCC1O[C@@H](O/N=C/c2ccoc2)C(O)[C@@H](O)C1O` (stereo partly specified), `OCC1O[C@@H](O/N=C/CCl)C(O)[C@@H](O)C1O` (stereo partly specified) is lower in Kd: over 10000 µM for the first, 5300 µM for the second. The second binds more tightly here.

Going from `NO[C@@H]1OC(CO)C(O)[C@H](O)C1O` (stereo partly specified) to `OCC1O[C@@H](O/N=C/c2ccc(Br)cc2)C(O)[C@@H](O)C1O` (stereo partly specified), the Kd falls from 5500 µM to 690 µM (8-fold).

`CC(=O)Nc1ccc(/C=N/O[C@@H]2OC(CO)C(O)[C@H](O)C2O)cc1` (stereo partly specified) and `OCC1O[C@@H](O/N=C/c2cccc(-c3ccccc3)c2)C(O)[C@@H](O)C1O` (stereo partly specified) are within 1.5-fold of each other in Kd: 4100 µM for the first, 2900 µM for the second.

Going from `OCC1O[C@@H](O/N=C/c2ccc(O)cc2)C(O)[C@@H](O)C1O` (stereo partly specified) to `CCn1c2ccccc2c2cc(/C=N/O[C@@H]3OC(CO)C(O)[C@H](O)C3O)ccc21` (stereo partly specified), the Kd falls from 4800 µM to 2200 µM (2.2-fold). The second binds more tightly here.

First: OCC1O[C@@H](O/N=C/c2ccc(OCc3ccccc3)cc2)C(O)[C@@H](O)C1O (stereo partly specified)
Second: OCC1O[C@@H](O/N=C/c2ccccc2-c2ccccc2)C(O)[C@@H](O)C1O (stereo partly specified)
The Kd of the first is higher: over 10000 µM for the first, 2900 µM for the second. The second binds more tightly here.

Going from `OCC1O[C@@H](O/N=C/C(c2ccccc2)c2ccccc2)C(O)[C@@H](O)C1O` (stereo partly specified) to `COc1cccc(/C=N/O[C@@H]2OC(CO)C(O)[C@H](O)C2O)c1O` (stereo partly specified), the Kd falls from 7200 µM to 1700 µM (4.2-fold).

Going from `C=NO[C@@H]1OC(CO)C(O)[C@H](O)C1O` (stereo partly specified) to `O=[N+]([O-])c1ccc(/C=N/O[C@@H]2OC(CO)C(O)[C@H](O)C2O)cc1` (stereo partly specified), the Kd falls from 8900 µM to 2200 µM (4-fold).

First: Cc1ccccc1/C=N/O[C@@H]1O[C@@H](CO)[C@H](O)[C@H](O)[C@@H]1O
Second: OCC1O[C@@H](O/N=C/c2ccc3ccccc3c2)C(O)[C@@H](O)C1O (stereo partly specified)
The Kd of the first is 2.5-fold higher: 5700 µM for the first, 2300 µM for the second. The second binds more tightly here.

Compared with `CN(C)c1ccc(/C=N/O[C@@H]2OC(CO)C(O)[C@H](O)C2O)cc1` (stereo partly specified), `OCC1O[C@@H](O/N=C/c2ccc(O)c(O)c2)C(O)[C@@H](O)C1O` (stereo partly specified) is 16-fold lower in Kd: 9000 µM for the first, 550 µM for the second. The second binds more tightly here.

First: O=[N+]([O-])c1ccc(/C=N/O[C@@H]2OC(CO)C(O)[C@H](O)C2O)c([N+](=O)[O-])c1 (stereo partly specified)
Second: OCC1O[C@@H](O/N=C/C2CCCCC2)C(O)[C@@H](O)C1O (stereo partly specified)
The Kd of the first is 2.7-fold lower: 1800 µM for the first, 4800 µM for the second.

`OCC1O[C@@H](O/N=C\C2C[C@H]3C=CC2C3)C(O)[C@@H](O)C1O` (stereo partly specified) and `OCC1O[C@@H](O/N=C/c2ccccc2OC(F)(F)F)C(O)[C@@H](O)C1O` (stereo partly specified) are within 1.5-fold of each other in Kd: 4800 µM for the first, 3800 µM for the second.

Compared with `OCC1O[C@@H](O/N=C/c2ccc(O)cc2O)C(O)[C@@H](O)C1O` (stereo partly specified), `CC(C)(C)c1ccc(/C=N/O[C@@H]2OC(CO)C(O)[C@H](O)C2O)cc1` (stereo partly specified) is 5.7-fold higher in Kd: 840 µM for the first, 4800 µM for the second. The first binds more tightly here.

First: OCC1O[C@@H](O/N=C/c2ccnc3ccccc23)C(O)[C@@H](O)C1O (stereo partly specified)
Second: OCC1O[C@@H](O/N=C/c2ccc3ccccc3n2)C(O)[C@@H](O)C1O (stereo partly specified)
The Kd of the first is 2.3-fold lower: 620 µM for the first, 1400 µM for the second.

`OCC1O[C@@H](O/N=C/c2cc(Br)ccc2O)C(O)[C@@H](O)C1O` (stereo partly specified) and `OCC1O[C@@H](O/N=C/c2cccc(F)c2)C(O)[C@@H](O)C1O` (stereo partly specified) are within 1.5-fold of each other in Kd: 1650 µM for the first, 1600 µM for the second.

First: OCC1O[C@@H](O/N=C/c2ccccc2)C(O)[C@@H](O)C1O (stereo partly specified)
Second: O=[N+]([O-])c1ccccc1/C=N/O[C@@H]1OC(CO)C(O)[C@H](O)C1O (stereo partly specified)
The Kd of the first is 2.7-fold lower: 3500 µM for the first, 9300 µM for the second.

Going from `OCC1O[C@@H](O/N=C/c2c3ccccc3cc3ccccc23)C(O)[C@@H](O)C1O` (stereo partly specified) to `OCC1O[C@@H](O/N=C/CCc2ccccc2)C(O)[C@@H](O)C1O` (stereo partly specified), the Kd rises from 2500 µM to over 10000 µM.

Going from `OCC1O[C@@H](O/N=C/c2cc(O)ccc2O)C(O)[C@@H](O)C1O` (stereo partly specified) to `OCC1O[C@@H](O/N=C/Cc2ccccc2)C(O)[C@@H](O)C1O` (stereo partly specified), the Kd rises from 780 µM to over 10000 µM.

Going from `OCC1O[C@@H](O/N=C/c2cccnc2)C(O)[C@@H](O)C1O` (stereo partly specified) to `O=[N+]([O-])c1ccc(O)c(/C=N/O[C@@H]2OC(CO)C(O)[C@H](O)C2O)c1` (stereo partly specified), the Kd falls from 3300 µM to 360 µM (9.2-fold).

First: CCC(/C=N/O[C@@H]1OC(CO)C(O)[C@H](O)C1O)CC (stereo partly specified)
Second: OCC1O[C@@H](O/N=C/c2ccncc2)C(O)[C@@H](O)C1O (stereo partly specified)
The Kd of the first is lower: 7300 µM for the first, over 10000 µM for the second. The first binds more tightly here.

First: OCC1O[C@@H](O/N=C/c2ccco2)C(O)[C@@H](O)C1O (stereo partly specified)
Second: O=C[C@H](O)[C@@H](O)[C@@H](O)[C@H](O)CO [GALACTOSE]
The Kd of the first is 1.6-fold higher: 6400 µM for the first, 4000 µM for the second.

Going from `OC[C@H]1O[C@@H](O)[C@H](O)[C@@H](O)[C@H]1O` [b-D-GALACTOSE] to LACTOSE, ANHYDROUS, the Kd falls from 4400 µM to 220 µM (20-fold).
